Here are results for one compound from patent US20260217691A1, “FOXM1 INHIBITORS AND THEIR USE IN TREATING CANCERS” (THE BOARD OF TRUSTEES OF THE UNIVERSITY OF ILLINOIS, priority 2022, published 2026).

Data set [1] has as its target T1, FOXM1 (Homo sapiens, UniProt Q08050).
T1 sequence (Q08050 1-763): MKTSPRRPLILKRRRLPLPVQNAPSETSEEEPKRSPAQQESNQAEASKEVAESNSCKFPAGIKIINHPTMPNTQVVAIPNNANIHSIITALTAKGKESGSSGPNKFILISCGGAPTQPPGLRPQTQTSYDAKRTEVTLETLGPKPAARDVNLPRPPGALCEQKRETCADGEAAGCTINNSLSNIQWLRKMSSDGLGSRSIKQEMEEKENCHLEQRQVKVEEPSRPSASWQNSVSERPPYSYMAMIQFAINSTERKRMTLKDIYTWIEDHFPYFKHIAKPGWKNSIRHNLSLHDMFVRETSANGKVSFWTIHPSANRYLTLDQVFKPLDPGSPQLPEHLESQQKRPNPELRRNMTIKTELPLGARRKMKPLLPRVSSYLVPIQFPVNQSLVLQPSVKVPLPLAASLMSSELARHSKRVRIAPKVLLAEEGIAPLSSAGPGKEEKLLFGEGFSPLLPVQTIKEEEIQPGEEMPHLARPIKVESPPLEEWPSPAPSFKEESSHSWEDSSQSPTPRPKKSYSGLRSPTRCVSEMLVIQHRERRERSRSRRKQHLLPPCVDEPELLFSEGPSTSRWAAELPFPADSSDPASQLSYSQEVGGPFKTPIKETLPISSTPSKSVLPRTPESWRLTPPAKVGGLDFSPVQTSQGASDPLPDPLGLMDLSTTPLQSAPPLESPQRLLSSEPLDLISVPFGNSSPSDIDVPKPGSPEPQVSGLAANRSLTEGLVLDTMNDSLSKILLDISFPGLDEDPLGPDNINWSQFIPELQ
The data set is described as follows: FOXM1 protein levels by immunoblotting in solid cancer cell lines. In general terms: In western blotting, separated proteins are transferred to a membrane and probed.
Method: Cell culture: Human cell lines LNCaP and 22Rv1 (human prostate carcinoma), OVCAR8 and ES-2 (High-grade serous ovarian cancer, HGSOC), HCT-116 and HCT-FET (human colorectal carcinoma), HCC-1143 (triple negative breast cancer (TNBC), TAMR (Tamoxifen resistant MCF7) human breast cancer, were provided from various investigators. LNCaP and 22Rv1 cell lines were cultured in RPMI-1640 with 2 mM L-Glutamine (Gibco; Thermo Fisher Scientific, Waltham, MA, USA). HCC-1143 cell lines were cultured in Iscove's Modified Dulbecco Medium (IMDM) with 2 mM L-Glutamine (Gibco; Thermo Fisher Scientific). OVCAR-8, ES-2, HCT-116, and HCT-FET cell lines were cultured in Dulbecco's Modified Eagle Medium (DMEM) with 4.5 g/L glucose and 4 mM L-Glutamine (Gibco; Thermo Fisher Scientific). For all cell lines, the growth media was supplemented with 10% Foetal Bovine Serum (FBS), penicillin (100 U/mL), and 100 μg/mL streptomycin (Gibco; Thermo Fisher Scientific). TAMR cells were routinely cultured in DMEM/F12 medium without phenol red (Gibco; Thermo Fisher Scientific), containing 1% charcoal-striped FBS, 2.5 mM L-Glutamine (Thermo Fisher Scientific), 6 ng/mL insulin (Millipore Sigma) and 50 nM 4-hydroxytamoxifen (4-OHT; Millipore Sigma). All cell lines were grown and maintained at 37° C. in a humidified incubator with 5% CO2. Sub-confluent cultures (70-80%) were split 1:5 using 0.25% Trypsin/EDTA (Millipore Sigma).
Drug treatment of cultured cells: After harvesting, cells were counted in presence of Trypan Blue (Thermo Fisher Scientific) and seeded onto tissue culture plates to achieve ~50% confluency. The next day, treatment of cells was performed by aspirating the nonadherent cells and growth medium and replacing it with the fresh one containing selected concentrations of drugs. For Tamoxifen based studies, the nonadherent cells and growth media was aspirated and replaced with the DMEM supplemented with 4.5 g/L glucose and 4 mM L-Glutamine, 10% FBS, penicillin (100 U/mL), 100 μg/mL streptomycin, 10 nM estrogen, and selected concentrations of drugs. […] Post-treatment at selected times, the cells were harvested, washed with ice-cold PBS and used for protein or RNA purification as described below.
Protein immunoblotting: Total protein was extracted using ice-cold radio-immunoprecipitation assay (RIPA) buffer (Millipore Sigma) supplemented with Halt protease- and phosphatise-inhibitor cocktails (Fisher Scientific), 2 mM sodium orthovanadate (New England Biolabs, Inc., USA), and 5 mM sodium fluoride (Millipore Sigma) according to the manufacturer's protocol. Protein content in each sample was estimated using Bio-Rad Protein Assay (Bio-Rad, USA). Equal amounts of protein (20-30 μg) were separated on hand-cast SDS/PAGE (6-12%) mini-protein gels and transferred to 0.2 μm Immobilon-Psq polyvinylidene difluoride (PVDF) transfer membrane (Millipore Sigma). Membranes were blocked with 4% bovine serum albumin (BSA; Millipore Sigma) in TRIS-buffered saline (TBS) with 0.1% Tween-20 (TBS-T, Thermo Fisher Scientific) and probed overnight at 4° C. with the primary antibodies (FOXM1, Cell Signaling Technology (CST), Inc., USA; Cleaved Caspase-3, CST; β-actin, Thermo Fisher Scientific) diluted according to the manufacturer's protocol. […] After incubating membranes with the secondary antibodies, the membranes were then washed three times for 10 min each with TBST. Protein bands were developed using SuperSignal™ West Pico PLUS Chemiluminescent Substrate (Thermo Fisher Scientific) and detected using ChemiDoc Imaging System (Bio-Rad).

The test system of data set [2] is 22RV1, LNCaP cells. As for the experimental part:
(§1) FIG. 17. […] (A) Prostate cancer (22RV1 and LNCaP) cells were treated with indicated concentrations of paclitaxel alone or in combination with STL001 for 24 hrs. (B) Tamoxifen resistance MCF-7 breast cancer cells (TAM-R) were treated with indicated concentrations of Tamoxifen alone or in combination with STL001 for 24 hrs. In all cases, total protein samples were obtained from cells immediately after treatment and analyzed for FOXM1, cleaved caspase-3 levels via immunoblotting, β-actin was used as internal loading control (n=3). (C) Percent (%) dead cells in TAM-R cells treated with indicated concentrations of Tamoxifen alone or in combination with STL001 for 24 hrs. […] (F) HCC 143 cells with stable shRNA-mediated FOXM1 knockdown (KD) were treated with doxorubicin alone or in combination with STL001 for 24 hrs and compared to parental cells under the same treatment conditions. In all cases, total protein samples were obtained from cells immediately after treatment and analyzed for FOXM1, cleaved caspase-3 levels via immunoblotting, β-actin was used as internal loading control (n=3).

The subject of data set [3] is HCC-1143 cells. The conditions noted are these: HCC-1143 FOXM1-KD, doxorubicin. As for the experimental part:
as §1
Stable FOXM1-expression knockdown in cancer cell: Cells were seeded on commercially available 12-well tissue culture plates to achieve ~40% confluency. […] Transduced cells were selected by their cultivation with puromycin (1.0 μg/mL) for 10 days and then maintained without puromycin as described above.

`O=C(Oc1cccc(-c2ccn(-c3nc(Nc4ccccc4)nc(N4CCOCC4)n3)n2)c1)c1ccco1` [STL001]: in data set [1] (HCC-1143), the “FOXM1 level in combination with cisplatin or doxorubicin” value is on record as “efficiently prevents cisplatin or doxorubicin chemotherapy induced FOXM1 upregulation”. The “FOXM1 levels in combination with 5′FU” value in data set [1] (HCT-116 and HCT-FET) is listed as “remarkably decreased 5′FU-induced FOXM1 levels”. Moreover, in data set [1] (OVCAR-8, ES-2, HCT-116, HCT-FET, TAM-R, HCC-1143, 22RV1, LNCaP, tested at 1, 5, 10 μM), the “concentration giving reduction of cellular levels of FOXM1 protein” value is 1 µM. The “FOXM1 protein levels in combination with doxorubicin” value in data set [1] (OVCAR-8, ES-2, 24 hrs) is “efficiently prevented FOXM1 activation”. Also, in data set [1] (TAMR cells), the “FOXM1 level in combination with tamoxifen” value is “efficiently prevents tamoxifen induced FOXM1 upregulation”. Besides, the FOXM1 expression entry in data set [1] (breast, colorectal, esophageal and ovarian cancer cells) was “demonstrably lowers FOXM1 expression”. For the same compound, the “efficiency in reducing cellular FOXM1 activity compared to STL427944” value in data set [1] (solid cancer cell lines) is ~ 25 times. The “cytotoxic effects (caspase-3 cleavage) in combination with taxol” value in data set [2] was “enhanced the cytotoxic effects of taxol-therapy”. Moreover, the “sensitization effect in FOXM1 deficient cells” value in data set [3] was “absent”.
